Assay results: patent publication US8372967B2, “Compounds and methods for modulating expression of GCCR” (Isis Pharmaceuticals, Inc., priority 2006, dated 2013)
Strand notation (5' to 3'): a small letter for the sugar, then the base; units joined by * are phosphorothioate-linked, units joined directly phosphodiester-linked; [ ] holds rarer units or linkages, { } end groups; capitals alone tell only the bases. e = 2'-O-(2-methoxyethyl) (MOE); [5mC] = 5-methylcytosine; d = 2'-deoxy (DNA)

How the values were obtained:
Format in all cases: in vivo, mouse
[1] = Total and full-length antisense compound concentrations in liver and kidney, GCGR study (Table 42); conditions: 48 h after single i.p. dose
Description: (§1) Eight-week old male C57/BL6 mice (Jackson Laboratory, Bar Harbor, Me.) were administered a single dose of GCGR oligonucleotide by intraperitoneal injection at a concentration of […]. Each dose group consisted of four animals. Shown in Table 31 are the sequences, motifs and conjugates of the GCGR antisense compounds used in this study. Bolded residues indicate 2′-O-methoxyethyl (2′-MOE) moieties. All compounds comprise phosphorothioate internucleoside linkages throughout and each cytosine is replaced with 5-methylcytosine. ISIS 386626, ISIS 386627 and ISIS 386628 further comprise a C16 conjugate group attached to the 2′-O position of the sugar via a diamide linkage (2′-OCH2C(═O)N(H)(CH2)4N(H)C(═O)—(CH2)15CH3). GCGR antisense compounds target published GCGR sequences, including Genbank® Accession No. BC031885.1 (SEQ ID NO: 7).
(§2) Mice were sacrificed 48 hours following injection to determine serum transaminase levels (Table 32); liver, white adipose tissue (WAT), spleen and kidney weight (Table 33); cholesterol, triglyceride and glucose levels (Table 34); GCGR mRNA levels (Tables 35-41); and full-length and total oligonucleotide concentration in liver and kidney (Table 42). Endpoints were assessed using methods described herein and well known to those of ordinary skill in the art. Data is included from a pre-treatment bleed (Pre-Bleed) and post-treatment bleed (Post-Bleed).
Treatment with the 2-10-2 MOE gapmers led to a significant dose-dependent decrease in GCGR mRNA expression. […] To determine whether the observed increase in efficiency with the short antisense compounds is due to an increase in antisense compound accumulation, full-length and total antisense compound concentration in the liver and kidney were determined.

[2] = Organ weights: liver, WAT, spleen, kidney, GCGR study (Table 33); conditions: 48 h
Description: as §1, §2

[3] = Triglyceride, cholesterol and glucose levels, pre-bleed and post-bleed, GCGR study (Table 34); design: Triglyceride (TRIG) Pre-Bleed / Triglyceride (TRIG) Post-Bleed / Cholesterol (CHOL) Pre-Bleed / Cholesterol (CHOL) Post-Bleed / Glucose Pre-Bleed / Glucose Post-Bleed: unit not given here; conditions: for Cholesterol (CHOL) Pre-Bleed / Triglyceride (TRIG) Pre-Bleed: pre-treatment bleed; for Cholesterol (CHOL) Post-Bleed / Triglyceride (TRIG) Post-Bleed: post-treatment bleed
Description: as §1, §2

[4] = tested on: GCGR mRNA; assay: GCGR mRNA levels in liver and estimated ED50, C57/BL6 mice, single i.p. dose of MOE and methyleneoxy BNA gapmers (Tables 44, 45); conditions: liver
Description: Eight-week old male C57/BL6 mice (Jackson Laboratory, Bar Harbor, Me.) were administered a single dose of GCGR antisense compound by intraperitonel (i.p.) injection at a concentration of 10, 3.2, 1, and 0.32 μmol·kg. Each dose group consisted of four animals. Shown in Table 43 are the sequences, motifs and conjugates of the GCGR antisense compounds used in this study. Bolded residues indicate 2′-O-methoxyethyl (2′-MOE) modifications and the italicized residues indicate methyleneoxy (4′-CH2—O-2′) BNA modifications. All antisense compounds comprise phosphorothioate internucleoside linkages throughout and each cytosine is replaced with 5-methylcytosine. GCGR antisense compounds target published GCGR nucleic acids, including Genbank Accession No. BC031885.1 (SEQ ID NO: 7).
To determine whether the phenotypic changes shown above correlated with a decrease in GCGR mRNA, treated animals were evaluated for levels of target mRNA in liver by RT, real time PCR according to methods described herein. Table 44 show results from direct comparisons of the antisense compounds targeting GCGR nucleic acid for their effect on target expression. Results are expressed as percent of saline control.

[5] = ALT & AST levels and toxic effects, GCGR study (Table 32); conditions: C57/BL6 mice, pre-treatment bleed
Description: as §1, §2

148364 (antisense eT*eG*e[5mC]*eA*e[5mC]*dT*dT*dT*dG*dT*dG*dG*dT*dA*d[5mC]*e[5mC]*eA*eA*eG*eG) [compound 148364]
Full-length Antisense Compound Concentration Kidney ([1]; kidney): 58 µg/g | Total Antisense Compound Concentration Kidney ([1]; kidney): 90 µg/g | Full-length Antisense Compound Concentration Liver ([1]; liver): 46 µg/g | Total Antisense Compound Concentration Liver ([1]; liver): 54 µg/g | Organ Weights: Kidney ([2]; 6.25 mg/kg single i.p.): 104 % saline control | Organ Weights: Liver ([2]; 6.25 mg/kg single i.p.): 101 % saline control | Organ Weights: Spleen ([2]; 6.25 mg/kg single i.p.): 113 % saline control | Organ Weights: WAT ([2]; 6.25 mg/kg single i.p.): 89 % saline control | Organ Weights: Kidney ([2]; 12.5 mg/kg single i.p.): 108 % saline control | Organ Weights: Liver ([2]; 12.5 mg/kg single i.p.): 100 % saline control | Organ Weights: Spleen ([2]; 12.5 mg/kg single i.p.): 96 % saline control | Organ Weights: WAT ([2]; 12.5 mg/kg single i.p.): 84 % saline control | Organ Weights: Kidney ([2]; 25 mg/kg single i.p.): 112 % saline control | Organ Weights: Liver ([2]; 25 mg/kg single i.p.): 103 % saline control | Organ Weights: Spleen ([2]; 25 mg/kg single i.p.): 115 % saline control | Organ Weights: WAT ([2]; 25 mg/kg single i.p.): 75 % saline control | Organ Weights: Kidney ([2]; 50 mg/kg single i.p.): 108 % saline control | Organ Weights: Liver ([2]; 50 mg/kg single i.p.): 103 % saline control | Organ Weights: Spleen ([2]; 50 mg/kg single i.p.): 123 % saline control | Organ Weights: WAT ([2]; 50 mg/kg single i.p.): 80 % saline control | Cholesterol (CHOL) Pre-Bleed ([3]; 6.25 mg/kg group): 86 | Triglyceride (TRIG) Pre-Bleed ([3]; 6.25 mg/kg group): 86 | Cholesterol (CHOL) Post-Bleed ([3]; 6.25 mg/kg single i.p.): 89 | Triglyceride (TRIG) Post-Bleed ([3]; 6.25 mg/kg single i.p.): 162 | Cholesterol (CHOL) Pre-Bleed ([3]; 12.5 mg/kg group): 85 | Triglyceride (TRIG) Pre-Bleed ([3]; 12.5 mg/kg group): 106 | Cholesterol (CHOL) Post-Bleed ([3]; 12.5 mg/kg single i.p.): 89 | Triglyceride (TRIG) Post-Bleed ([3]; 12.5 mg/kg single i.p.): 179 | Cholesterol (CHOL) Pre-Bleed ([3]; 25 mg/kg group): 83 | Triglyceride (TRIG) Pre-Bleed ([3]; 25 mg/kg group): 115 | Cholesterol (CHOL) Post-Bleed ([3]; 25 mg/kg single i.p.): 96 | Triglyceride (TRIG) Post-Bleed ([3]; 25 mg/kg single i.p.): 200 | Cholesterol (CHOL) Pre-Bleed ([3]; 50 mg/kg group): 81 | Triglyceride (TRIG) Pre-Bleed ([3]; 50 mg/kg group): 110 | Cholesterol (CHOL) Post-Bleed ([3]; 50 mg/kg single i.p.): 94 | Triglyceride (TRIG) Post-Bleed ([3]; 50 mg/kg single i.p.): 177 | GCGR mRNA levels ([4]; 0.32 μmol/kg single i.p.): 105% of saline control | GCGR mRNA levels ([4]; 1 μmol/kg single i.p.): 106% of saline control | GCGR mRNA levels ([4]; 3.2 μmol/kg single i.p.): 73% of saline control | GCGR mRNA levels ([4]; 10 μmol/kg single i.p.): 38% of saline control | ALT Pre-Bleed ([5]; dose group 6.25 mg/kg): 28 IU/L | AST Pre-Bleed ([5]; dose group 6.25 mg/kg): 47 IU/L | ALT Pre-Bleed ([5]; dose group 12.5 mg/kg): 23 IU/L | AST Pre-Bleed ([5]; dose group 12.5 mg/kg): 44 IU/L | ALT Pre-Bleed ([5]; dose group 25 mg/kg): 26 IU/L | AST Pre-Bleed ([5]; dose group 25 mg/kg): 42 IU/L | ALT Pre-Bleed ([5]; dose group 50 mg/kg): 24 IU/L | AST Pre-Bleed ([5]; dose group 50 mg/kg): 40 IU/L
